In article PMC5845645, “QSAR-Driven Design and Discovery of Novel Compounds With Antiplasmodial and Transmission Blocking Activities” (Frontiers in Pharmacology, 2018):
Where two headings read alike, the source gives them in different places.

Assays:
P. falciparum 3D7 = test: Growth inhibition by SYBR Green I, chloroquine-sensitive strain; format: cell-based; conditions: Plasmodium falciparum, read-out: IC50 3D7
Procedure: (§1) Chloroquine-sensitive (3D7) and multidrug-resistant (W2) strains were cultured in RPMI 1640 medium supplemented with 0.05 mg/mL gentamycin, 38.4 mM HEPES, 0.2% sodium bicarbonate, and 10% O^+ human serum, as previously described in a standardized protocol ([Trager and Jensen, 1976]). Then, erythrocytes were added to the culture to obtain a 5% hematocrit, and incubated at 37°C under 5% CO2 atmosphere, with daily exchange of medium. The parasitemia was monitored daily in smears stained with Giemsa. Synchronic cultures in the ring stage were obtained by two consecutive treatments at 48 h intervals with a 5% solution of D-sorbitol ([Lambros and Vanderberg, 1979]).
(§2) Parasites synchronized at the ring stage, with 0.5% parasitemia and 2% hematocrit were distributed in each well, separately. The compounds were tested in triplicates, using 12 point of concentration, prepared in two-fold dilution (40 μM – ∼0.019 μM) over 72 h. Chloroquine and pyrimethamine were used as control. Subsequently, the in vitro susceptibility of parasite to tested drugs was measured by SYBR Green according to [Hartwig et al. (2013)]. Briefly, 100 μL of lysis buffer (20 mM Tris, 5 mM EDTA, 0.008% wt/vol saponin, 0.08% vol/vol Triton X-100, and 0.4 μL/mL of SYBR Green) were added in each well of a new black 96-well plate and 100 μL of parasite culture incubated with drugs were added. After homogenization, the plates were incubated for 1 h in the dark. Fluorescence was measured at 490 nm excitation and 540 nm emission (CLARIOstar, Labtech BMG). The IC50 was calculated by plotting the Log doses vs. Inhibition (expressed as a percentage relative to the control) in Prism 6 (GraphPad Software Inc.).

P. falciparum W2 = test: Growth inhibition by SYBR Green I, multidrug-resistant strain; format: cell-based; conditions: Plasmodium falciparum, read-out: IC50 W2
Procedure: as §1, §2

[1] = Cytotoxicity assay (MTT reduction); format: cell-based, monkey; conditions: monkey; COS7 cells, 72 h
Procedure: (§3) Cytotoxicity assays used COS7 cells (fibroblast-like cell lines derived from monkey kidney tissue), grown in DMEM medium supplemented with 10% fetal bovine serum and 0.05 mg/mL gentamicin in atmosphere containing 5% CO2 at 37°C. Drug cytotoxicity in COS7 cells was determined in duplicate, using 12 point of concentration, prepared in two-fold dilution (200 μM – ∼ 0.097 μM). After the incubation period (72 h), the cell viability analysis were done by the MMT reduction method (3-[4,5-dimethyl-thiazol-2-yl]-2,5-diphenyltetrazolium […] ([Mosmann, 1983]). The optical density was determined at 570 nm (CLARIOstar, Labtech BMG) and the 50% cytotoxicity concentrations (CC50) was expressed as the percent viability relative to the control. The selectivity index of the compounds was determined by the following expression:
(§4) Where COS7 CC50 corresponds to the 50% cytotoxic concentration on COS7 cells and Pf IC50 is the 50 % inhibitory concentration on P. falciparum (3D7).

P. berghei ANKA = test: Ookinete assay (gametocyte to ookinete conversion); format: cell-based; conditions: Plasmodium berghei, 24 h, 21°C, ookinete formation relative to DMSO control
Procedure: All animal procedures were carried out in accordance to the Brazilian College of Animal Experimentation (COBEA). This research protocol was approved by the Ethics Committee of the Institute of Biomedical Sciences – University of Sao Paulo, protocol number 132/2014-CEUA. C57BL/6 mice received an intraperitoneal injection of P. berghei ANKA infected erythrocytes, and four days after infection, a mouse with parasitemia between 4 and 6% and gametocytemia > 0.4% was selected as blood donor for cardiac puncture. Four microliters of the infected blood was dispensed in 80 μl of ookinete medium ([Blagborough et al., 2012]) at 21°C with DMSO control or with 10 μM of the tested compounds. The assay was incubated at 21°C for 24 h and 2 μl of the blood at the bottom of the tubes was spread onto a glass slide, stained with Giemsa and analyzed under a direct light microscope. The total number of formed ookinetes were counted in each slide (triplicate for each condition), and inhibition was calculated in relation to the total ookinetes formed in the control condition.

[2] = parameters: method as in Hit2Lead library; conditions: calculated; ref Hit2Lead library; cited from earlier work
PfdUTPase = target: PfdUTPase; parameters: method as in earlier work; conditions: pKi = -logKi of literature Ki, ref Nguyen et al., 2005, 2006, Whittingham et al., McCarthy et al., 2009, Baragaña et al., 2011, Hampton et al., Ruda et al.; cited from earlier work
COS7 cells = test: Cytotoxicity assay (MTT reduction); format: cell-based, monkey; conditions: selectivity index = COS7 CC50 / Pf IC50 (3D7)
Procedure: as §3, §4

[3] = asexual blood stage, chloroquine-sensitive 3D7, 72 h
[4] = asexual blood stage, multidrug-resistant W2, 72 h

Row | SMILES | IC50 (P. falciparum 3D7; [3]) | IC50 (P. falciparum W2; [4]) | PfdUTPase inhibition (pKi) (PfdUTPase) | other results
1 | COc1ccc(C(OCC2OC(n3ccc(=O)[nH]c3=O)C(O)C2O)(c2ccccc2)c2ccccc2)cc1 (stereo not drawn) [LabMol-146] | 6.1 ± 1.95 µM | 3.2 ± 2.12 µM |  | CC50 at 72 h [1]: 52 ± 16.4 µM; inhibition at 10 µM (P. berghei ANKA): 7.3 ± 7.3%; logS [2]: −5.04
2 | CC(C)(C)[Si](C)(C)OC1CC(n2ccc(=O)[nH]c2=O)OC1CO (stereo not drawn) [Compound 127] |  |  | 3.19 | 
3 | COc1ccc(C(OCC2OC3C(Oc4nc(=O)ccn43)C2O)(c2ccccc2)c2ccc(OC)cc2)cc1 (stereo not drawn) [LabMol-144] | 7.1 ± 2.53 µM | 4.23 ± 1.18 µM |  | CC50 at 72 h [1]: 81.7 ± 25.7 µM; SI (COS7 cells): 11.7; inhibition at 10 µM (P. berghei ANKA): 44.6 ± 2.4%; logS [2]: −5.36
4 | O=c1ccn([C@H]2C[C@H](O)[C@@H](CNC(c3ccccc3)c3ccccc3)O2)c(=O)[nH]1 [Compound 3, 2′,5′-dideoxy-5′-[(diphenylmethyl)amino]uridine] |  |  | 6.70 | 
5 | CCc1nc(N)nc(N)c1-c1ccc(Cl)cc1 [Pyrimethamine, reference compound] | 0.044 ± 0.009 µM | 14.7 ± 3.94 µM |  | 
6 | CC(C)(C)[Si](C)(C)OC1CC(n2ccc(=O)[nH]c2=O)OC1CNP(=O)(Oc1ccccc1)Oc1ccccc1 (stereo not drawn) [Compound 87] |  |  | 4.17 | 
7 | O=C(O)CCCNC(=O)C(CCOC(c1ccccc1)(c1ccccc1)c1ccccc1)Cn1ccc(=O)[nH]c1=O (stereo not drawn) [Compound 4] |  |  | 6.70 | 
8 | CCN(CC)CCCC(C)Nc1ccnc2cc(Cl)ccc12 (stereo not drawn) [Chloroquine, reference compound] |  |  |  | IC50 (P. falciparum 3D7; 3D7, 72 h): 0.011 ± 0.0006 µM; IC50 (P. falciparum W2; W2, 72 h): 0.181 ± 0.027 µM
9 | N#Cc1ccc(C(OCC2OC(n3ccc(=O)[nH]c3=O)CC2O)(c2ccccc2)c2ccccc2)cc1 (stereo not drawn) [Compound 20] |  |  | 6.03 | 
10 | COc1ccc2c(c1)c(/C=C/c1nc3ccccc3c(=O)n1-c1ccccc1)c(C)n2C [LabMol-145] | 17.1 ± 16.2 µM | 15.3 ± 3.29 µM |  | CC50 at 72 h [1]: 46 ± 13.4 µM; SI (COS7 cells): 2.7; inhibition at 10 µM (P. berghei ANKA): 13.2 ± 24%; logS [2]: −6.74
11 | O=c1ccn(C2CC(O)C(CNC(c3ccccc3)(c3ccccc3)c3ccccc3)O2)c(=O)[nH]1 (stereo not drawn) [Compound 1] |  |  | 6.70 | 
